Results from ChEMBL document CHEMBL4414674, “Paraconiothins A-J: Sesquiterpenoids from the Endophytic Fungus Paraconiothyrium brasiliense ECN258” (J Nat Prod, 2019).
Calls of active or inactive are those of the source. No cut-off for these calls is given here.

Experiments:
Format in all cases: cell-based
[1] = molecular target: T1, Retinoic acid receptor alpha (Homo sapiens) (UniProt P10276); assay: Inhibition of human RARalpha transfected in human HEK293 cells co-expressing CMV-beta galactosidase assessed as effect on beta-galactosidase activity at 50 uM after 48 hrs by luciferase reporter gene assay
T1 sequence (whole entry): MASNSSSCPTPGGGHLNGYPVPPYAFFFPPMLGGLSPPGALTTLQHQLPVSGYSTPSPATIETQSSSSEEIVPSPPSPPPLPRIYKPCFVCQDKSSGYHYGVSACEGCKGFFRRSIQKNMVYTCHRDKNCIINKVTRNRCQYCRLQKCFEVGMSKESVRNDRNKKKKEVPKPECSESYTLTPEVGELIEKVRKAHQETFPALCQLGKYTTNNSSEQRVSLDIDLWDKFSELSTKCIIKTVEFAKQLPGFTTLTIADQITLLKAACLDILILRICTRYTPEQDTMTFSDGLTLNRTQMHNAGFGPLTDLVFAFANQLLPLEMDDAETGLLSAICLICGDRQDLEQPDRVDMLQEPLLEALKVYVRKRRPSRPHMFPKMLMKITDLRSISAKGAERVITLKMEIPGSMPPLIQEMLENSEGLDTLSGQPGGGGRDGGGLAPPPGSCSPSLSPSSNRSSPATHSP

[2] = molecular target: T2, Peroxisome proliferator-activated receptor gamma (Homo sapiens) (UniProt P37231); assay: Inhibition of PPARgamma (unknown origin) transfected in human HEK293 cells co-expressing CMV-beta galactosidase assessed as effect on beta-galactosidase activity at 50 uM after 48 hrs by luciferase reporter gene assay
T2 sequence (whole entry): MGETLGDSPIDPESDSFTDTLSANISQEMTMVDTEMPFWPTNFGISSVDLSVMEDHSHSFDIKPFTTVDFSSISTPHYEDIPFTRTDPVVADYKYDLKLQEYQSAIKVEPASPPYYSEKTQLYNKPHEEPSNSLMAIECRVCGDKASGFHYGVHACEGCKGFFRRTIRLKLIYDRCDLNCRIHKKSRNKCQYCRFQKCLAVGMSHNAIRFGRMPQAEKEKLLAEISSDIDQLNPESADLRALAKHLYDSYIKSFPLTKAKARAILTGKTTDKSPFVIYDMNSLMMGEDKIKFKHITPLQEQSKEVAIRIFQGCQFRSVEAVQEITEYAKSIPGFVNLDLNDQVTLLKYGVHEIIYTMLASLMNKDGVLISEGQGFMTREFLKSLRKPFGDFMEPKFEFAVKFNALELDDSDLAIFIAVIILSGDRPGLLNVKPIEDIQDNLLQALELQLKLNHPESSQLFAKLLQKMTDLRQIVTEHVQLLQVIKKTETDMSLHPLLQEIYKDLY

[3] = molecular target: T3, Peroxisome proliferator-activated receptor delta (Homo sapiens) (UniProt Q03181); assay: Inhibition of PPARdelta (unknown origin) transfected in human HEK293 cells co-expressing CMV-beta galactosidase assessed as effect on beta-galactosidase activity at 50 uM after 48 hrs by luciferase reporter gene assay
T3 sequence (whole entry): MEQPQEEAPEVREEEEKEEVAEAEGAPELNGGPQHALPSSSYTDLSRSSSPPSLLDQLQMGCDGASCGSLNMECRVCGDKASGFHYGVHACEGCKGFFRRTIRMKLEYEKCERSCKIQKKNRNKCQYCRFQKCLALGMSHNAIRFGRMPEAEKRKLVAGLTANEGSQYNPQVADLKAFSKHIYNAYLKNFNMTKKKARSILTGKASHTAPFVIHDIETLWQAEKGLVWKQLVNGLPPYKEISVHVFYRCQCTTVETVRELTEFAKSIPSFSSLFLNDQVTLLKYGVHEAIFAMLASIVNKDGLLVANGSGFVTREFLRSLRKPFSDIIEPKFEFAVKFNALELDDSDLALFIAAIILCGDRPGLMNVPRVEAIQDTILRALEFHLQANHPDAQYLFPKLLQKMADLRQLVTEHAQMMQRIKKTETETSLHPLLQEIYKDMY

[4] = molecular target: T4, Oxysterols receptor LXR-alpha (Homo sapiens) (UniProt Q13133); assay: Inhibition of human LXRalpha transfected in human HEK293 cells co-expressing CMV-beta galactosidase assessed as inhibition on T0901317 response at 50 uM after 48 hrs by luciferase reporter gene assay
T4 sequence (whole entry): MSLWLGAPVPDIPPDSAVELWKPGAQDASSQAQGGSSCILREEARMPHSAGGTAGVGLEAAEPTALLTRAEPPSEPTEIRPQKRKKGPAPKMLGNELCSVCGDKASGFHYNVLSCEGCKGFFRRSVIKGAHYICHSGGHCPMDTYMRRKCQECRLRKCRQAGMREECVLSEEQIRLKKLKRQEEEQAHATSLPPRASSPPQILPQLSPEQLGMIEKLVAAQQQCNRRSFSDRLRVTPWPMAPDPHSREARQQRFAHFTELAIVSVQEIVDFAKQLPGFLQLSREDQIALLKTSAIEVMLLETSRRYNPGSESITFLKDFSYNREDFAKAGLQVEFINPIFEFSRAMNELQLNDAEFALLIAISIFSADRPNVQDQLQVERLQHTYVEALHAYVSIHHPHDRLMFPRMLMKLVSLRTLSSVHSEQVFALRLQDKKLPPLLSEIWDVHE

[5] = system: HEK293; assay: Cytotoxicity against human HEK293 cells

inhibition [1]	inhibition [2]	inhibition [3]	inhibition [4]	SMILES	Activity [5]
inactive	inactive	inactive		C=C(CO)[C@@]12O[C@@H]1[C@@]1(C)C(=C[C@@H]2OC(C)=O)CC[C@@H](O)[C@@H]1C (relative stereo)	
inactive	inactive	inactive		C=C(CO)[C@@H]1CC=C2C[C@@H](O)[C@H](O)[C@@H](C)[C@]2(C)C1 (relative stereo)	
inactive	inactive	inactive	Active	C=C(CO)c1ccc([C@@H](C)C[C@@H](O)CO)c(C)c1 (relative stereo)	Non-Toxic
inactive	inactive	inactive		C=C(CO)[C@@]12O[C@@H]1[C@@]1(C)C(=CC2=O)C[C@H](O)C[C@@H]1C	
inactive	inactive	inactive		C=C(CO)c1ccc([C@@H](O)[C@H](O)/C=C/C)c(C)c1 (relative stereo)	
inactive	inactive	inactive		C=C(CO)c1ccc2c(c1C)[C@@H](C)C[C@H](O)C2=O	
inactive	inactive	inactive	Active	C=C(CO)[C@H]1CC=C2CC[C@@H](O)[C@H](C)[C@@]2(C)C1	Non-Toxic
inactive	inactive	inactive		C=C(CO)[C@H]1C[C@@]2(C)C(=C[C@@H]1O)C[C@H](O)C[C@@H]2C	
inactive	inactive	inactive		C[C@H]1CC(=O)C=C2C=CC(=C(CO)CO)[C@H](O)[C@@]21C	
inactive	inactive	inactive		C=C(CO)[C@]12O[C@H]1[C@]1(C)C(=C[C@H]2OC(C)=O)CCC[C@H]1C	
inactive	inactive	inactive		C=C(CO)[C@@]12O[C@@H]1[C@@]1(C)C(=C[C@@H]2OC(C)=O)C=C[C@@H](O)[C@@H]1C	
inactive	inactive	inactive		C=C(CO)[C@@]12O[C@@H]1[C@@]1(C)C(=C[C@@H]2O)[C@H](O)CC[C@@H]1C	

SMILES	inhibition [1]	inhibition [2]	inhibition [3]	inhibition [4]	Activity [5]
C=C(CO)[C@@]12O[C@@H]1[C@@]1(C)C(=C[C@@H]2O)C=C[C@@H](O)[C@@H]1C	inactive	inactive	inactive		
